# Measurements published in patent US20230365556A1, “N-ACYL AMINO ACID COMPOUNDS AND METHODS OF USE” (Pliant Therapeutics, Inc., priority 2016, published 2023).
# Structures can show the parent of a compound that is named as a salt.
# Target: αvβ1 integrin (αvβ1 expressing CHO cells) (Homo sapiens (Human), UniProt P05556+P06756)
# Assay: Cell adhesion assay: inhibition of αvβ1 expressing CHO cells attaching to TGFβ1LAP
# Assay type: cell-based
# Conditions: 1 h at 37° C., crystal violet absorbance 595 nm, read-out: αvβ1 Inhibition IC50 (nM)-range
# Description: Example B1—Cell Adhesion Assay
# In order to determine the potency, the compounds were assessed for their ability to inhibit αvβ1 expressing CHO cells attach to TGFβ1LAP. Microplates were coated overnight with 2 ug/ml TGFβ1LAP at 4° C., and blocked with 2% BSA/PBS for 30 min before the assay. Cells were detached and washed in PBS. After that the cells were resuspended in DMEM at 1.0×10^6 cells/ml, fifty microliter of cell suspension and fifty microliter of compound solution were added into the plate. The plates were incubated for one hour at 37° C. in humidified 5% carbon dioxide. Non-adherent cells were removed by centrifugation top side down at 58 g for 5 min. The attached cells were fixed and stained with 0.5% crystal violet (in 20% methanol and 1% formaldehyde) and the wells washed with PBS. Crystal violet was dissolved in 2% Triton-X in PBS. The relative number of cells in each well was evaluated by the absorbance at 595 nm in a microplate reader (Tecan). IC50 values were determined by non-linear regression with four parameters (Graphpad Prism 7.01, Y=Bottom+(Top−Bottom)/(1+10^((Log IC50−X)*HillSlope)).
# The compounds tested were compound samples prepared according to procedures described in the Synthetic Examples section, with the stereochemical purity as indicated in the Examples indicated for Example or Compound No. 1-62. The compounds tested were predominantly S-configuration at the alpha carbon of the amino acid scaffold, except for compounds 123, 124, and 125 which were predominantly R-configuration at the alpha carbon of the amino acid scaffold. “Example or Compound No.” in Table B-1 refers to the compound illustrated in the examples for Example or Compound Nos. 1-62 (the compounds of Examples 1-62 are labeled as Compounds 1-62 in Table 1). “Example or Compound No.” in Table B-1 refers to the compound number as indicated in Table 1 or Table 2 for Example or Compound Nos. 63-126.
# Sequence of αvβ1 integrin (αvβ1 expressing CHO cells) (P06756 31-889): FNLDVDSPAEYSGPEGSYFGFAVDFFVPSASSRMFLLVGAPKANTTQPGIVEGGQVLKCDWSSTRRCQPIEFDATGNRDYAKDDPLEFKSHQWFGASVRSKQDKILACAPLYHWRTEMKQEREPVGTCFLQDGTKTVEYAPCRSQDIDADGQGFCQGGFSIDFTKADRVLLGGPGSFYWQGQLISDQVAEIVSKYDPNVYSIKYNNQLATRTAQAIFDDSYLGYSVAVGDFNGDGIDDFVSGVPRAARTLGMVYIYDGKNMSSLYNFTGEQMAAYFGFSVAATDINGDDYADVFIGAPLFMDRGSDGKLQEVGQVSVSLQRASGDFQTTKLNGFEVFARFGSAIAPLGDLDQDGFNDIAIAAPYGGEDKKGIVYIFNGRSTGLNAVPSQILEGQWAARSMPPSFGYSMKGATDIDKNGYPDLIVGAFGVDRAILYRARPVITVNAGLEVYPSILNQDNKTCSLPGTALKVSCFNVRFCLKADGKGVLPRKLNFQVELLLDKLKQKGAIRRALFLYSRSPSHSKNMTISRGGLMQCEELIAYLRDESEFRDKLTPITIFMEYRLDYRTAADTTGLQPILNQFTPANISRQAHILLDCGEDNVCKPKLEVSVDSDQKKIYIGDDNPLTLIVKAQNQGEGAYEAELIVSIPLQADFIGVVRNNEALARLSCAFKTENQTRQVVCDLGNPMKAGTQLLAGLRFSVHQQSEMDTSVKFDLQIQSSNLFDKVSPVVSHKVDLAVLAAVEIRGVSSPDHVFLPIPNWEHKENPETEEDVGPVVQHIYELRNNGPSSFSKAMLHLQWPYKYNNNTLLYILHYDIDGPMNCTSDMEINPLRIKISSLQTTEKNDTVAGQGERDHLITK
# Sequence of αvβ1 integrin (αvβ1 expressing CHO cells) (P06756 891-1048 partner): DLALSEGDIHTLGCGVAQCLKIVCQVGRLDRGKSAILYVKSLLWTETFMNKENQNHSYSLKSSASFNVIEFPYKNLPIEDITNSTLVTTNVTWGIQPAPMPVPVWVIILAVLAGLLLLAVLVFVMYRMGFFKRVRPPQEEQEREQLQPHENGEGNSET
# Sequence of αvβ1 integrin (αvβ1 expressing CHO cells) (P05556 21-798): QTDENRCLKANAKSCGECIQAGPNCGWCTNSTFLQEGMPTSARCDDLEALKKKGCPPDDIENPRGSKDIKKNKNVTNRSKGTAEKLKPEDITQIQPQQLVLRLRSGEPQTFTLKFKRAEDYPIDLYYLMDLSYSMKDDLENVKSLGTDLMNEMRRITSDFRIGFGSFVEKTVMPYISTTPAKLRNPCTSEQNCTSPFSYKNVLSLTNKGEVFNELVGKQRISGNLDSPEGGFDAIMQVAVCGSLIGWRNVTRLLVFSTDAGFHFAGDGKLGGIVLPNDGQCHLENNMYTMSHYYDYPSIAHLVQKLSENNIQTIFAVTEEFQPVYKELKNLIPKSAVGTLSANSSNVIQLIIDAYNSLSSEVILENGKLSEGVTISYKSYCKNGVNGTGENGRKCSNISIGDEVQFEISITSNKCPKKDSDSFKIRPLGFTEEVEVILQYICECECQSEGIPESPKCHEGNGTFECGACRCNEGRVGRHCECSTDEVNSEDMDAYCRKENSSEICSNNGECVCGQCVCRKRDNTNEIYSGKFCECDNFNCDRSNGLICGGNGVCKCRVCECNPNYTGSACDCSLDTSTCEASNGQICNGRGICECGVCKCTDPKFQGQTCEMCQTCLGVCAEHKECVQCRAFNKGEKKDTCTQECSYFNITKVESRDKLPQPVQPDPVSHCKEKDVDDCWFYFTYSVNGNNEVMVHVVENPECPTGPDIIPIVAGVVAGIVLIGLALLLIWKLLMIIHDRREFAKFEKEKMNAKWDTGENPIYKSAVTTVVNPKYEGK
row,IC50 [nM],Structure (SMILES)
1,< 50,"CC(OCCc1ccc2c(n1)NCCC2)c1ccc(C[C@H](NC(=O)c2c(Cl)cccc2Cl)C(=O)O)cc1 (stereo partly drawn) [Example 33, (2S)-2-(2,6-dichlorobenzamido)-3-(4-(1-(2-(5,6,7,8-tetrahydro-1,8-naphthyridin-2-yl)ethoxy)ethyl)phenyl)propanoic acid]"
2,< 50,"O=C(N[C@@H](Cc1ccc(OCCCc2ccc3c(n2)NCCC3)cc1)C(=O)O)c1cccnc1 [Example 14, (S)-2-(nicotinamido)-3-(4-(3-(5,6,7,8-tetrahydro-1,8-naphthyridin-2-yl)propoxy)phenyl)propanoic acid]"
3,< 50,"O=C(N[C@@H](Cc1ccc(OCCCc2ccc3c(n2)NCCC3)cc1)C(=O)O)c1ccc2[nH]ncc2c1 [Example 42, (2S)-2-(1H-indazole-5-carbonylamino)-3-[4-[3-(5,6,7,8-tetrahydro-1,8-naphthyridin-2-yl)propoxy]phenyl]propanoic acid]"
4,< 50,"O=C(N[C@@H](Cc1ccc(OCCCc2ccc3c(n2)NCCC3)cc1)C(=O)O)c1cc(Cl)cc(Cl)c1 [Example 35, (2S)-2-[(3,5-dichlorobenzoyl)amino]-3-[4-[3-(5,6,7,8-tetrahydro-1,8-naphthyridin-2-yl)propoxy]phenyl]propanoic acid]"
5,50 to 250,O=C(N[C@@H](CCCCCCCc1ccc2c(n1)NCCC2)C(=O)O)c1cn[nH]c1-c1ccccc1 [Compound 110]
6,> 1000,"O=C(N[C@@H](CCCCCCCCNC1=NCCNC1)C(=O)O)c1c(Cl)cccc1Cl [Example 47, (S)-2-(2,6-dichlorobenzamido)-10-((3,4,5,6-tetrahydropyrazin-2-yl)amino)decanoic acid]"
7,250 to 1000,"O=C(N[C@@H](Cc1cccc(OCCCc2ccc3c(n2)NCCC3)c1)C(=O)O)c1c(Cl)cccc1Cl [Example 37, (2S)-2-((2,6-dichlorobenzoyl)amino)-3-(3-(3-(5,6,7,8-tetrahydro-1,8-naphthyridin-2-yl)propoxy)phenyl)propanoic acid]"
8,> 1000,"O=C(N[C@@H](CCCCCCCCNC1=NCCO1)C(=O)O)c1c(Cl)cccc1Cl [Example 48, (S)-2-(2,6-dichlorobenzamido)-10-((4,5-dihydrooxazol-2-yl)amino)decanoic acid]"
9,50 to 250,"O=C(NC(Cc1ccc(COC2CCC(Nc3ccccn3)CC2)cc1)C(=O)O)c1c(Cl)cccc1Cl [Example 31, (S)-2-(2,6-dichlorobenzamido)-3-(4-((((1s,4R)-4-(pyridin-2-ylamino)cyclohexyl)oxy)methyl)phenyl)propanoic acid trifluoroacetate]"
10,< 50,"O=C(N[C@@H](Cc1ccc(OCCCc2ccc3c(n2)NCCC3)cc1)C(=O)O)c1ccc(C2CC2)cc1 [Example 34, (2S)-2-[(4-cyclopropylbenzoyl)amino]-3-[4-[3-(5,6,7,8-tetrahydro-1,8-naphthyridin-2-yl)propoxy]phenyl]propanoic acid]"
11,< 50,"Cn1ncc2cc(C(=O)N[C@@H](Cc3ccc(OCCCc4ccc5c(n4)NCCC5)cc3)C(=O)O)ccc21 [Example 43, (2S)-2-[(1-methylindazole-5-carbonyl)amino]-3-[4-[3-(5,6,7,8-tetrahydro-1,8-naphthyridin-2-yl)propoxy]phenyl]propanoic acid]"
12,< 50,"O=C(N[C@@H](Cc1ccc(OCCCc2ccc3c(n2)NCCC3)cc1)C(=O)O)c1c(F)cccc1F [Example 7, (S)-2-(2,6-difluorobenzamido)-3-(4-(3-(5,6,7,8-tetrahydro-1,8-naphthyridin-2-yl)propoxy)phenyl)propanoic acid]"
13,50 to 250,"Cn1cnc2cc(C(=O)N[C@@H](Cc3ccc(OCCCc4ccc5c(n4)NCCC5)cc3)C(=O)O)ccc21 [Example 9, (S)-2-(1-methyl-1H-benzo[d]imidazole-5-carboxamido)-3-(4-(3-(5,6,7,8-tetrahydro-1,8-naphthyridin-2-yl)propoxy)phenyl)propanoic acid]"
14,< 50,"Cn1cc2ccc(C(=O)N[C@@H](Cc3ccc(OCCCc4ccc5c(n4)NCCC5)cc3)C(=O)O)cc2n1 [Example 44, (2S)-2-[(2-methylindazole-6-carbonyl)amino]-3-[4-[3-(5,6,7,8-tetrahydro-1,8-naphthyridin-2-yl)propoxy]phenyl]propanoic acid]"
15,< 50,"O=C(N[C@@H](Cc1ccc(OCCCc2ccc3c(n2)NCCC3)cc1)C(=O)O)c1ccc2cn[nH]c2c1 [Example 40, (2S)-2-(1H-indazole-6-carbonylamino)-3-[4-[3-(5,6,7,8-tetrahydro-1,8-naphthyridin-2-yl)propoxy]phenyl]propanoic acid]"
16,250 to 1000,"O=C(NC(CN1CC(OCCCc2ccc3c(n2)NCCC3)C1)C(=O)O)c1c(Cl)cccc1Cl (centres unmarked) [Compound 74, 2-(2,6-dichlorobenzamido)-3-(3-(3-(5,6,7,8-tetrahydro-1,8-naphthyridin-2-yl)propoxy)azetidin-1-yl)propanoic acid]"
17,50 to 250,O=C(N[C@@H](CCCCCCCc1ccc2c(n1)NCCC2)C(=O)O)c1ccc2cn(C(F)F)nc2c1 [Compound 108]
18,50 to 250,"Cn1ncc2cc(C(=O)NC(CCCCCCCc3ccc4c(n3)NCCC4)C(=O)O)ccc21 (centres unmarked) [Compound 82, 2-(1-methyl-1H-indazole-5-carboxamido)-9-(5,6,7,8-tetrahydro-1,8-naphthyridin-2-yl)nonanoic acid]"
19,< 50,"O=C(N[C@@H](Cc1ccc(OCCCc2ccc3c(n2)NCCC3)cc1)C(=O)O)c1c(Cl)cncc1Cl [Example 15, (S)-2-(3,5-dichloroisonicotinamido)-3-(4-(3-(5,6,7,8-tetrahydro-1,8-naphthyridin-2-yl)propoxy)phenyl)propanoic acid]"
20,< 50,O=C(NC(Cc1ccc(OCCCc2ccc3c(n2)NCCC3)cc1)C(=O)O)c1c(Cl)cc(-c2cnc[nH]2)cc1Cl (centres unmarked) [Compound 99]
21,250 to 1000,O=C(N[C@@H](CCCCCCCc1ccc2c(n1)NCCC2)C(=O)O)c1ccc2nn(C(F)F)cc2c1 [Compound 106]
22,50 to 250,Cn1ncc2cc(C(=O)N[C@@H](CCCCCCCc3ccc4c(n3)NCCC4)C(=O)O)ccc21 [Compound 104]
23,< 50,"O=C(N[C@@H](Cc1ccc(OCCCc2ccc3c(n2)NCCC3)cc1)C(=O)O)c1cnc(C(F)F)cn1 [Example 3, (S)-2-(5-(difluoromethyl)pyrazine-2-carboxamido)-3-(4-(3-(5,6,7,8-tetrahydro-1,8-naphthyridin-2-yl)propoxy)phenyl)propanoic acid]"
24,< 50,"O=C(N[C@@H](Cc1ccc(OCCCc2ccc3c(n2)NCCC3)cc1)C(=O)O)c1c(F)cccc1C(F)(F)F [Example 6, (S)-2-(2-fluoro-6-(trifluoromethyl)benzamido)-3-(4-(3-(5,6,7,8-tetrahydro-1,8-naphthyridin-2-yl)propoxy)phenyl)propanoic acid]"
25,< 50,"O=C(N[C@@H](Cc1ccc(OCCCc2ccc3c(n2)NCCC3)cc1)C(=O)O)c1ccncc1 [Example 13, (S)-2-(isonicotinamido)-3-(4-(3-(5,6,7,8-tetrahydro-1,8-naphthyridin-2-yl)propoxy)phenyl)propanoic acid]"
26,> 1000,"O=C(N[C@@H](CCCCCCCCNC1=NCCCO1)C(=O)O)c1c(Cl)cccc1Cl [Example 51, (S)-2-(2,6-dichlorobenzamido)-10-((5,6-dihydro-4H-1,3-oxazin-2-yl)amino)decanoic acid]"
27,50 to 250,Cn1cc(-c2ccc(C(=O)N[C@@H](CCCCCCCc3ccc4c(n3)NCCC4)C(=O)O)cc2)cn1 [Compound 113]
28,< 50,"O=C(N[C@@H](Cc1ccc(OCCCc2ccc3c(n2)NCCC3)cc1)C(=O)O)c1ccccc1 [Example 1, (S)-2-benzamido-3-(4-(3-(5,6,7,8-tetrahydro-1,8-naphthyridin-2-yl)propoxy)phenyl)propanoic acid]"

row,Structure (SMILES),IC50 [nM]
1,"CN1CCN=C(NCCCCOc2ccc(C[C@H](NC(=O)c3c(Cl)cccc3Cl)C(=O)O)cc2)C1=O [Example 17, (S)-2-(2,6-dichlorobenzamido)-3-(4-(4-((4-methyl-3-oxo-3,4,5,6-tetrahydropyrazin-2-yl)amino)butoxy)phenyl)propanoic acid]",> 1000
2,"O=C(N[C@@H](Cc1ccc(OCCCCNC2=NCCO2)cc1)C(=O)O)c1c(Cl)cccc1Cl [Example 61, (S)-2-(2,6-dichlorobenzamido)-3-(4-(4-((4,5-dihydrooxazol-2-yl)amino)butoxy)phenyl)propanoic acid]",50 to 250
3,"CN1C(=O)CN=C1NCCCCOc1ccc(C[C@H](NC(=O)c2c(Cl)cccc2Cl)C(=O)O)cc1 [Example 57, (S)-2-(2,6-dichlorobenzamido)-3-(4-(4-((1-methyl-5-oxo-4,5-dihydro-1H-imidazol-2-yl)amino)butoxy)phenyl)propanoic acid]",> 1000
4,"O=C(NC(Cc1ccc(COC2CC(Nc3ccccn3)C2)cc1)C(=O)O)c1c(Cl)cccc1Cl [Example 32, (S)-2-(2,6-dichlorobenzamido)-3-(4-(((1s,3R)-3-(pyridin-2-ylamino)cyclobutoxy)methyl)phenyl)propanoic acid trifluoroacetate]",50 to 250
